Test results: US12110288B2, “MASP-2 inhibitors and methods of use” (Omeros Corporation, priority 2019, dated 2024)
Where a name gives a salt, the structure may show the parent alone.

What follows are molecules tested against T1, MASP-2 (CCP1-CCP2-SP) (Homo sapiens, UniProt O00187) (assay: Enzymatic Assay for MASP-2). Conditions: fluorogenic substrate based on C2 cleavage site, room temperature, 20 mM HEPES pH 7.4.
T1 construct: 15 μL of Enzyme MASP-2 (CCP1-CCP2-SP) in Assay Buffer
Type: biochemical
Outline: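 Fluorogenic substrate modelled on the C2 cleavage site, run at room temperature in 20 mM HEPES pH 7.4, 140 mM NaCl, 0.1% Tween 20; compounds were added from DMSO serial dilutions before enzyme and substrate. Reactions ran 20 min and were stopped with 0.1 M acetic acid before fluorescence was read. % activity was normalised to DMSO-only and no-enzyme controls; IC50 was taken as Ki, with tight- or slow-binding inhibitors handled separately.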

T1 sequence (O00187 445-686 limits assumed): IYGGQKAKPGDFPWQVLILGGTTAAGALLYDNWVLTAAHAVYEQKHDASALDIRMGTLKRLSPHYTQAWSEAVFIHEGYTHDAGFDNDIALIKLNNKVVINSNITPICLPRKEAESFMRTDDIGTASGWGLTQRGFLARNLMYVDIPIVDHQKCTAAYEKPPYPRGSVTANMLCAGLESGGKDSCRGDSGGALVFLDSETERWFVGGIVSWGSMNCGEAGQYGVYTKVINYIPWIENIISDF
T1 sequence (O00187 298-444 partner limits assumed): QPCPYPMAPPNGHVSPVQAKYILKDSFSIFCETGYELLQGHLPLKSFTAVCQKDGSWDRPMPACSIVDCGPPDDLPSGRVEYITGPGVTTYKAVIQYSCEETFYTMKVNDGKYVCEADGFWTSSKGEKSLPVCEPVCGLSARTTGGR

Compound | Ki [nM]
Cn1cc(-c2cnc(NCCc3ccccc3)c(=O)n2CC(=O)NCc2cc(Cl)c3[nH]cnc3c2)cn1 [Compound 130, N-((7-Chloro-1H-Benzo[d]Imidazol-5-yl)Methyl)-2-(6-(1-Methyl-1H-Pyrazol-4-yl)-2-Oxo-3-(Phenethylamino)Pyrazin-1(2H)-yl)Acetamide] | 2500 to 10000
Cn1cc(-c2cnc(NCCc3ccccc3)c(=O)n2CC(=O)NCc2cnc3[nH]ccc3c2)cn1 [Compound 131, N-((1H-Pyrrolo[2,3-b]Pyridin-5-yl)Methyl)-2-(6-(1-Methyl-1H-Pyrazol-4-yl)-2-Oxo-3-(Phenethylamino)Pyrazin-1(2H)-yl)Acetamide] | > 10000
Cn1cc(-c2cnc(NCCc3ccccc3)c(=O)n2CC(=O)NCc2cc3cnccc3o2)cn1 [Compound 132] | 500 to 2500
Cc1ccccc1CCNc1ncc(-c2ccccc2)n(CC(=O)NCc2cc3cnccc3[nH]2)c1=O [Compound 135, N-((1H-Pyrrolo[3,2-c]pyridin-2-yl)methyl)-2-(3-((2-methylphenethyl)amino)-2-oxo-6-phenylpyrazin-1(2H)-yl)acetamide] | < 500
COc1cccc(CCNc2ncc(-c3ccccc3)n(CC(=O)NCc3cc4cnccc4[nH]3)c2=O)c1 [Compound 136, N-((1H-Pyrrolo[3,2-c]pyridin-2-yl)methyl)-2-(3-((3-methoxyphenethyl)amino)-2-oxo-6-phenylpyrazin-1(2H)-yl)acetamide] | < 500
Cc1cccc(CCNc2ncc(-c3ccccc3)n(CC(=O)NCc3cc4cnccc4[nH]3)c2=O)c1 [Compound 137, N-((1H-Pyrrolo[3,2-c]pyridin-2-yl)methyl)-2-(3-((3-methylphenethyl)amino)-2-oxo-6-phenylpyrazin-1(2H)-yl)acetamide] | < 500
Cc1ccc(CCNc2ncc(-c3ccccc3)n(CC(=O)NCc3cc4cnccc4[nH]3)c2=O)cc1 [Compound 138, N-((1H-Pyrrolo[3,2-c]pyridin-2-yl)methyl)-2-(3-((4-methylphenethyl)amino)-2-oxo-6-phenylpyrazin-1(2H)-yl)acetamide] | < 500
O=C(Cn1c(-c2ccccc2)cnc(N2CC(c3ccccc3)C2)c1=O)NCc1cc2cnccc2[nH]1 [Compound 139, N-((1H-Pyrrolo[3,2-c]pyridin-2-yl)methyl)-2-(2-oxo-6-phenyl-3-(3-phenylazetidin-l-yl)pyrazin-1(2H)-yl)acetamide] | < 500
O=C(Cn1c(-c2ccccc2)cnc(N2CCC(c3ccccc3)CC2)c1=O)NCc1cc2cnccc2[nH]1 [Compound 140, N-((1H-Pyrrolo[3,2-c]pyridin-2-yl)methyl)-2-(2-oxo-6-phenyl-3-(4-phenylpiperidin-l-yl)pyrazin-1(2H)-yl)acetamide] | < 500
COc1ccccc1CCNc1ncc(-c2ccccc2)n(CC(=O)NCc2cc3cnccc3[nH]2)c1=O [Compound 141, N-((1H-Pyrrolo[3,2-c]pyridin-2-yl)methyl)-2-(3-((2-methoxyphenethyl)amino)-2-oxo-6-phenylpyrazin-1(2H)-yl)acetamide] | < 500
COc1ccc(CCNc2ncc(-c3ccccc3)n(CC(=O)NCc3cc4cnccc4[nH]3)c2=O)cc1 [Compound 142, N-((1H-Pyrrolo[3,2-c]pyridin-2-yl)methyl)-2-(3-((4-methoxyphenethyl)amino)-2-oxo-6-phenylpyrazin-1(2H)-yl)acetamide] | < 500
O=C(Cn1c(-c2ccccc2)cnc(N2CC[C@H](c3ccccc3)C2)c1=O)NCc1cc2cnccc2[nH]1 [Compound 143, (R)-N-((1H-Pyrrolo[3,2-c]pyridin-2-yl)methyl)-2-(2-oxo-6-phenyl-3-(3-phenylpyrrolidin-l-yl)pyrazin-1(2H)-yl)acetamide] | < 500
O=C(Cn1c(-c2ccccc2)cnc(NCCc2ccccc2F)c1=O)NCc1cc2cnccc2[nH]1 [Compound 144, N-((1H-Pyrrolo[3,2-c]pyridin-2-yl)methyl)-2-(3-((2-fluorophenethyl)amino)-2-oxo-6-phenylpyrazin-1(2H)-yl)acetamide] | < 500
O=C(Cn1c(-c2ccccc2)cnc(NCCc2cccc(F)c2)c1=O)NCc1cc2cnccc2[nH]1 [Compound 145, N-((1H-Pyrrolo[3,2-c]pyridin-2-yl)methyl)-2-(3-((3-fluorophenethyl)amino)-2-oxo-6-phenylpyrazin-1(2H)-yl)acetamide] | < 500
O=C(Cn1c(-c2ccccc2)cnc(NCCc2ccc(F)cc2)c1=O)NCc1cc2cnccc2[nH]1 [Compound 146, N-((1H-Pyrrolo[3,2-c]pyridin-2-yl)methyl)-2-(3-((4-fluorophenethyl)amino)-2-oxo-6-phenylpyrazin-1(2H)-yl)acetamide] | < 500
O=C(Cn1c(-c2ccccc2)cnc(NCc2ccc(F)cc2)c1=O)NCc1cc2cnccc2[nH]1 [Compound 147, N-((1H-Pyrrolo[3,2-c]Pyridin-2-yl)Methyl)-2-(3-((4-Fluorobenzyl)Amino)-2-Oxo-6-Phenylpyrazin-1(2H)-yl)Acetamide] | < 500
CNc1ncc(-c2ccccc2)n(CC(=O)NCc2cc3cnccc3[nH]2)c1=O [Compound 148, N-((1H-Pyrrolo[3,2-c]pyridin-2-yl)methyl)-2-(3-(methylamino)-2-oxo-6-phenylpyrazin-1(2H)-yl)acetamide] | < 500
O=C(Cn1c(-c2ccccc2)cnc(N2CCC2)c1=O)NCc1cc2cnccc2[nH]1 [Compound 149, N-((1H-Pyrrolo[3,2-c]pyridin-2-yl)methyl)-2-(3-(azetidin-1-yl)-2-oxo-6-phenylpyrazin-1(2H)-yl)acetamide] | < 500
COc1ccc(CNc2ncc(-c3ccccc3)n(CC(=O)NCc3cc4cnccc4[nH]3)c2=O)cc1 [Compound 150, N-((1H-Pyrrolo[3,2-c]pyridin-2-yl)methyl)-2-(3-((4-methoxybenzyl)amino)-2-oxo-6-phenylpyrazin-1(2H)-yl)acetamide] | < 500
O=C(Cn1c(-c2ccccc2)cnc(NCc2cccc(F)c2)c1=O)NCc1cc2cnccc2[nH]1 [Compound 151, N-((1H-Pyrrolo[3,2-c]pyridin-2-yl)methyl)-2-(3-((3-fluorobenzyl)amino)-2-oxo-6-phenylpyrazin-1(2H)-yl)acetamide] | < 500

Now from value to molecule:

Ki [nM] | Compound
< 500 | COCCCNc1ncc(-c2ccccc2)n(CC(=O)NCc2cc3cnccc3[nH]2)c1=O [Compound 121, N-((1H-Pyrrolo[3,2-c]pyridin-2-yl)methyl)-2-(3-((3-methoxypropyl)amino)-2-oxo-6-phenylpyrazin-1(2H)-yl)acetamide trifluoroacetate]
< 500 | COCCCCNc1ncc(-c2cnn(C)c2)n(CC(=O)NCc2cc3cnccc3[nH]2)c1=O [Compound 122, N-((1H-Pyrrolo[3,2-c]Pyridin-2-yl)Methyl)-2-(3-((4-Methoxybutyl)Amino)-6-(1-Methyl-1H-Pyrazol-4-yl)-2-Oxopyrazin-1(2H)-yl)Acetamide Trifluoroacetate]
< 500 | Cn1cc(-c2cnc(NCC(F)(F)c3ccccc3)c(=O)n2CC(=O)NCc2cc3cnccc3[nH]2)cn1 [Compound 123, N-((1H-Pyrrolo[3,2-c]Pyridin-2-yl)Methyl)-2-(3-((2,2-Difluoro-2-Phenylethyl)Amino)-6-(1-Methyl-1H-Pyrazol-4-yl)-2-Oxopyrazin-1(2H)-yl)Acetamide Trifluoroacetate]
< 500 | COCCCCNc1ncc(-c2ccccc2)n(CC(=O)NCc2cc3cnccc3[nH]2)c1=O [Compound 124, N-((1H-Pyrrolo[3,2-c]pyridin-2-yl)methyl)-2-(3-((4-methoxybutyl)amino)-2-oxo-6-phenylpyrazin-1(2H)-yl)acetamide trifluoroacetate]
< 500 | Cn1cc(-c2cnc(NCCC(F)F)c(=O)n2CC(=O)NCc2cc3cnccc3[nH]2)cn1 [Compound 125, N-((1H-Pyrrolo[3,2-c]pyridin-2-yl)methyl)-2-(3-((3,3-difluoropropyl)amino)-6-(1-methyl-1H-pyrazol-4-yl)-2-oxopyrazin-1(2H)-yl)acetamide trifluoroacetate]
< 500 | CCOCCCNc1ncc(-c2ccccc2)n(CC(=O)NCc2cc3cnccc3[nH]2)c1=O [Compound 126, N-((1H-Pyrrolo[3,2-c]Pyridin-2-yl)Methyl)-2-(3-((3-Ethoxypropyl)Amino)-2-Oxo-6-Phenylpyrazin-1(2H)-yl)Acetamide Trifluoroacetate]
< 500 | O=C(Cn1c(-c2ccccc2)cnc(NCCC(F)F)c1=O)NCc1cc2cnccc2[nH]1 [Compound 127, N-((1H-Pyrrolo[3,2-c]pyridin-2-yl)methyl)-2-(3-((3,3-difluoropropyl)amino)-2-oxo-6-phenylpyrazin-1(2H)-yl)acetamide trifluoroacetate]
< 500 | O=C(Cn1c(-c2ccccc2)cnc(NCC(F)(F)c2ccccc2)c1=O)NCc1cc2cnccc2[nH]1 [Compound 128, N-((1H-Pyrrolo[3,2-c]pyridin-2-yl)methyl)-2-(3-((2,2-difluoro-2-phenylethyl)amino)-2-oxo-6-phenylpyrazin-1(2H)-yl)acetamide trifluoroacetate]
< 500 | CCOCCCNc1ncc(-c2cnn(C)c2)n(CC(=O)NCc2cc3cnccc3[nH]2)c1=O [Compound 129, trifluoroacetate]
< 500 | Cn1cc(-c2cnc(NCCc3ccccc3)c(=O)n2CC(=O)NCc2cc3cnccc3s2)cn1 [Compound 133, 2-(6-(1-Methyl-1H-Pyrazol-4-yl)-2-Oxo-3-(Phenethylamino)Pyrazin-1(2H)-yl)-N-(Thieno[3,2-c]Pyridin-2-Ylmethyl)Acetamide]
< 500 | CC(C)Nc1ncc(-c2ccccc2)n(CC(=O)NCc2cc3cnccc3[nH]2)c1=O [Compound 134, N-((1H-Pyrrolo[3,2-c]Pyridin-2-yl)Methyl)-2-(3-(Isopropylamino)-2-Oxo-6-Phenylpyrazin-1(2H)-yl)Acetamide]
